Measured values reported in patent US6737383B1, “Herbicidal oxadiazolidines” (priority 1999, dated 2004).

Assays:
blackgrass = experiment: Test B pre/postemergence blackgrass; assay type: in vivo, Alopecurus myosuroides
Procedure, shortened: (§1)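 Response is a visual 0-to-10 score relative to untreated plants, where 0 means no effect and 10 means complete control, taken twelve to sixteen days after application. Treatments went onto soil at planting and onto foliage of 1- to 4-leaf plants, using a surfactant-containing non-phytotoxic solvent.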

surinam grass = experiment: Test B pre/postemergence surinam grass; assay type: in vivo, Brachiaria decumbens
Procedure, shortened: as §1

cocklebur = experiment: Test B pre/postemergence cocklebur; assay type: in vivo, Xanthium strumarium
Procedure, shortened: as §1

corn = experiment: Test B pre/postemergence corn; assay type: in vivo, Zea mays
Procedure, shortened: as §1

crabgrass = experiment: Test B pre/postemergence crabgrass; assay type: in vivo, Digitaria sanguinalis
Procedure, shortened: as §1

giant foxtail = experiment: Test B pre/postemergence giant foxtail; assay type: in vivo, Setaria faberii
Procedure, shortened: as §1

morningglory = experiment: Test B pre/postemergence morningglory; assay type: in vivo, Ipomoea hederacea
Procedure, shortened: as §1

pigweed = experiment: Test B pre/postemergence pigweed; assay type: in vivo, Amaranthus retroflexus
Procedure, shortened: as §1

rape = experiment: Test B pre/postemergence rape; assay type: in vivo, Brassica napus
Procedure, shortened: as §1

sugar beet = experiment: Test B pre/postemergence sugar beet; assay type: in vivo, Beta vulgaris
Procedure, shortened: as §1

velvetleaf = experiment: Test B pre/postemergence velvetleaf; assay type: in vivo, Abutilon theophrasti
Procedure, shortened: as §1

wheat = experiment: Test B pre/postemergence wheat; assay type: in vivo, Triticum aestivum
Procedure, shortened: as §1

purple nutsedge = experiment: Test B pre/postemergence purple nutsedge; assay type: in vivo, Cyperus rotundus
Procedure, shortened: as §1

rice = experiment: Test B flood test rice; assay type: in vivo, Oryza sativa
Procedure, shortened: (§2)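 Plants were grown to the 2-leaf stage before treatment with test chemical, then held in a greenhouse for twelve to sixteen days. Injury was visually rated against untreated controls on a 0–10 scale, where 0 is no effect and 10 is complete control.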

smallflower flatsedge = experiment: Test B flood test smallflower flatsedge; assay type: in vivo, Cyperus difformis
Procedure, shortened: as §2

duck salad = experiment: Test B flood test duck salad; assay type: in vivo, Heteranthera limosa
Procedure, shortened: as §2

[1] = Preemergence, Rate 62 g/ha, scale of 0 to 10 where 0 is no effect and 10 is complete control
[2] = Preemergence, Rate 250 g/ha, scale of 0 to 10 where 0 is no effect and 10 is complete control
[3] = Preemergence, Rate 500 g/ha, scale of 0 to 10 where 0 is no effect and 10 is complete control
[4] = Rate 62 g/ha, Postemergence, scale 0 to 10 (0 no effect, 10 complete control)
[5] = Rate 125 g/ha, Postemergence, scale of 0 to 10 where 0 is no effect and 10 is complete control
[6] = Rate 125 g/ha, Preemergence, scale of 0 to 10 where 0 is no effect and 10 is complete control
[7] = Rate 250 g/ha, Postemergence, scale of 0 to 10 where 0 is no effect and 10 is complete control
[8] = Rate 500 g/ha, Postemergence, scale 0 to 10, 0 no effect, 10 complete control
[9] = Rate 62 g/ha, headed Pre-emergence (flood test species), scale 0 to 10 (0 no effect, 10 complete control)
[10] = Rate 125 g/ha, Pre-emergence, flood test species, scale 0 to 10 where 0 is no effect and 10 is complete control
[11] = Rate 250 g/ha, Pre-emergence, flood-test species, scale 0 to 10, 0 is no effect, 10 is complete control
[12] = Rate 500 g/ha, Pre-emergence, flood test species, scale 0 to 10 (0 no effect, 10 complete control)

Structure (SMILES): CC1Cc2cccc(-n3c(=O)on(C(=O)N(c4ccc(F)cc4)C(C)C)c3=O)c2O1 (stereo not drawn) [Compound 281]
- Blackgrass plant response rating (blackgrass; [1]): 0
- Blackgrass plant response rating (blackgrass; [2]): 2
- Plant response rating, Blackgrass (blackgrass; [3]): 4
- Blackgrass plant response rating (blackgrass; [4]): 0
- Blackgrass plant response rating (blackgrass; [5]): 0
- Blackgrass plant response rating (blackgrass; [6]): 1
- Plant response rating, Blackgrass (blackgrass; [7]): 0
- Blackgrass plant response rating (blackgrass; [8]): 2
- B. signalgrass plant response rating (surinam grass; [1]): 0
- B. signalgrass plant response rating (surinam grass; [2]): 0
- Plant response rating, B. signalgrass (surinam grass; [3]): 0
- B. signalgrass plant response rating (surinam grass; [4]): 0
- B. signalgrass plant response rating (surinam grass; [5]): 0
- B. signalgrass plant response rating (surinam grass; [6]): 0
- Plant response rating, B. signalgrass (surinam grass; [7]): 0
- B. signalgrass plant response rating (surinam grass; [8]): 0
- Cocklebur plant response rating (cocklebur; [2]): 0
- Plant response rating, Cocklebur (cocklebur; [3]): 0
- Cocklebur plant response rating (cocklebur; [4]): 0
- Cocklebur plant response rating (cocklebur; [5]): 0
- Plant response rating, Cocklebur (cocklebur; [7]): 0
- Cocklebur plant response rating (cocklebur; [8]): 0
- Corn plant response rating (corn; [1]): 0
- Corn plant response rating (corn; [2]): 0
- Plant response rating, Corn (corn; [3]): 0
- Corn plant response rating (corn; [4]): 0
- Corn plant response rating (corn; [5]): 0
- Corn plant response rating (corn; [6]): 0
- Plant response rating, Corn (corn; [7]): 0
- Corn plant response rating (corn; [8]): 0
- Crabgrass plant response rating (crabgrass; [1]): 2
- Crabgrass plant response rating (crabgrass; [2]): 10
- Plant response rating, Crabgrass (crabgrass; [3]): 10
- Crabgrass plant response rating (crabgrass; [4]): 0
- Crabgrass plant response rating (crabgrass; [5]): 0
- Crabgrass plant response rating (crabgrass; [6]): 10
- Plant response rating, Crabgrass (crabgrass; [7]): 0
- Crabgrass plant response rating (crabgrass; [8]): 0
- Giant foxtail plant response rating (giant foxtail; [1]): 7
- Giant foxtail plant response rating (giant foxtail; [2]): 10
- Plant response rating, Giant foxtail (giant foxtail; [3]): 10
- Giant foxtail plant response rating (giant foxtail; [4]): 0
- Giant foxtail plant response rating (giant foxtail; [5]): 0
- Giant foxtail plant response rating (giant foxtail; [6]): 9
- Plant response rating, Giant foxtail (giant foxtail; [7]): 0
- Giant foxtail plant response rating (giant foxtail; [8]): 0
- Morningglory plant response rating (morningglory; [1]): 0
- Morningglory plant response rating (morningglory; [2]): 0
- Plant response rating, Morningglory (morningglory; [3]): 0
- Morningglory plant response rating (morningglory; [4]): 2
- Morningglory plant response rating (morningglory; [5]): 2
- Morningglory plant response rating (morningglory; [6]): 0
- Plant response rating, Morningglory (morningglory; [7]): 3
- Morningglory plant response rating (morningglory; [8]): 5
- Redroot pigweed plant response rating (pigweed; [1]): 0
- Redroot pigweed plant response rating (pigweed; [2]): 0
- Plant response rating, Redroot pigweed (pigweed; [3]): 0
- Redroot pigweed plant response rating (pigweed; [4]): 0
- Redroot pigweed plant response rating (pigweed; [5]): 2
- Redroot pigweed plant response rating (pigweed; [6]): 0
- Plant response rating, Redroot pigweed (pigweed; [7]): 5
- Redroot pigweed plant response rating (pigweed; [8]): 6
- Rape plant response rating (rape; [1]): 0
- Rape plant response rating (rape; [2]): 0
- Plant response rating, Rape (rape; [3]): 0
- Rape plant response rating (rape; [4]): 0
- Rape plant response rating (rape; [5]): 0
- Rape plant response rating (rape; [6]): 0
- Plant response rating, Rape (rape; [7]): 0
- Rape plant response rating (rape; [8]): 0
- Sugarbeets plant response rating (sugar beet; [1]): 0
- Sugarbeets plant response rating (sugar beet; [2]): 0
- Plant response rating, Sugarbeets (sugar beet; [3]): 0
- Sugarbeets plant response rating (sugar beet; [4]): 0
- Sugarbeets plant response rating (sugar beet; [5]): 0
- Sugarbeets plant response rating (sugar beet; [6]): 0
- Plant response rating, Sugarbeets (sugar beet; [7]): 0
- Sugarbeets plant response rating (sugar beet; [8]): 4
- Velvetleaf plant response rating (velvetleaf; [1]): 0
- Velvetleaf plant response rating (velvetleaf; [2]): 0
- Plant response rating, Velvetleaf (velvetleaf; [3]): 0
- Velvetleaf plant response rating (velvetleaf; [4]): 0
- Velvetleaf plant response rating (velvetleaf; [5]): 1
- Velvetleaf plant response rating (velvetleaf; [6]): 0
- Plant response rating, Velvetleaf (velvetleaf; [7]): 1
- Velvetleaf plant response rating (velvetleaf; [8]): 1
- Wheat plant response rating (wheat; [1]): 0
- Wheat plant response rating (wheat; [2]): 0
- Plant response rating, Wheat (wheat; [3]): 0
- Wheat plant response rating (wheat; [4]): 0
- Wheat plant response rating (wheat; [5]): 0
- Wheat plant response rating (wheat; [6]): 0
- Plant response rating, Wheat (wheat; [7]): 0
- Wheat plant response rating (wheat; [8]): 0
- Nutsedge plant response rating (purple nutsedge; [1]): 0
- Nutsedge plant response rating (purple nutsedge; [2]): 0
- Plant response rating, Nutsedge (purple nutsedge; [3]): 0
- Nutsedge plant response rating (purple nutsedge; [4]): 0
- Nutsedge plant response rating (purple nutsedge; [5]): 0
- Nutsedge plant response rating (purple nutsedge; [6]): 0
- Plant response rating, Nutsedge (purple nutsedge; [7]): 0
- Nutsedge plant response rating (purple nutsedge; [8]): 0
- Rice plant response rating (rice; [9]): 0
- Rice plant response rating (rice; [10]): 0
- Rice plant response rating (rice; [11]): 0
- Rice plant response rating (rice; [12]): 0
- S. Flatsedge plant response rating (smallflower flatsedge; [9]): 0
- S. Flatsedge plant response rating (smallflower flatsedge; [10]): 0
- S. Flatsedge plant response rating (smallflower flatsedge; [11]): 0
- S. Flatsedge plant response rating (smallflower flatsedge; [12]): 0
- Ducksalad plant response rating (duck salad; [9]): 0
- Ducksalad plant response rating (duck salad; [10]): 0
- Ducksalad plant response rating (duck salad; [11]): 0
- Ducksalad plant response rating (duck salad; [12]): 0
